In data set [1] the target is T1, MAGL (Mus musculus, UniProt O35678).
T1 construct: brain proteomes were prepared and analyzed according to previously established methods; from tissue; host or cells: brain of wild-type C57Bl/6J mice
T1 sequence (O35678 1-303): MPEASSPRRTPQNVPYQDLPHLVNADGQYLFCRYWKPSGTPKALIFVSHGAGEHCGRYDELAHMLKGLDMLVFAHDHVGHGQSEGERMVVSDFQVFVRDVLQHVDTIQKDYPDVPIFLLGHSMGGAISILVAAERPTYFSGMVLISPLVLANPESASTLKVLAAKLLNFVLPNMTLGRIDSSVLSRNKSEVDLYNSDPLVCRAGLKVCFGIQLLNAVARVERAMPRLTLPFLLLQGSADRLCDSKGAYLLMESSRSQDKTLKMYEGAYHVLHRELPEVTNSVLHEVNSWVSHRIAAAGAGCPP
Kind of data set: In vivo MAGL inhibition in mouse brain proteomes after oral gavage. The conditions noted are these: 5 mg/kg oral gavage, 4 h after administration, read-out: MAGL % inh. 5 mg/kg (mouse). As for the experimental part:
Inhibitors were administered to wild-type C57B1/6J by oral gavage in a vehicle of polyethylene glycol. Each animal was sacrificed 4 h following administration and brain proteomes were prepared and analyzed according to previously established methods (See Niphakis, M. J., et al. (2011) ACS Chem. Neurosci. and Long, J. Z., et al. Nat. Chem. Biol. 5:37-44).

Data set [2] in a line: Kinetic solubility in PBS. Type of data set: physicochemical. The conditions noted are these: aqueous buffer, kinetic from dmso stock. As for the experimental part:
The kinetic solubility of test articles was determined in PBS at pH 2.0 and pH 7.4 in duplicate. A stock solution of test compound in DMSO (10 mM) was incubated at RT for 2 hours with shaking at 1,100 RPM. The sample was then filtered using a vacuum manifold, diluted, and analyzed by LC-MS/MS. Chromatographic conditions: Phenomenex Synergi 4μ Hydro-PR 80A column (2.0×30 mm) coupled with pre-guard column; mobile phase=0.1% formic acid in acetonitrile and 0.1% formic acid in water; flowrate=0.65 mL/min; column temperature=40° C.; injection volume: 3 μL.
Mass conditions: Turbo spray ion source; ESI ionization model; MRM scan type; Collison gas=6 L/min; Curtain gas=30 L/min; Nebulize gas=50 L/min; Auxiliary gas=50 L/min; Temperature=500 degrees C.; Ion spray voltage=+5500 v (positive MRM).
The filtered solution was analyzed and quantified against a standard of known concentration in DMSO using UPLC coupled with mass spectral peak identification and quantitation. Solubility values of the test articles were calculated using Microsoft Excel as follows (DF is the dilution factor): […]

Data set [3] is described as follows: In vitro human hepatocyte stability. The class given is in vitro ADME. The following applies: cryopreserved human hepatocytes (pooled donor), human hepatocytes 0.5×10^6 cells/mL, read-out: Scaled-up unbound CLint. The method, then:
The metabolic stability of test articles (1 μM) in commercially sourced, pooled donor, cryopreserved human hepatocytes (0.5×10^6 cells/mL) was determined in duplicate. The CLint reactions (250 μL) were initiated by addition of test compound. Aliquots (25 μL) were taken at 0, 15, 30, 45, 60, 90, 120 and 240 minutes and then protein crashed with ice-cold acetonitrile containing internal standard then centrifuged (3220 g for 25 minutes). Supernatant was used for LC-MS/MS analysis. The in vitro half-life (in vitro t1/2) was determined from the slope value: in vitro t1/2=−0.693/k. Conversion of the in vitro t1/2 (in min) into the scale-up unbound intrinsic clearance (Scaled-up unbound CLint, in mL/min/kg) was done using the following equation (mean of duplicate determinations), with data shown in Table 5: Scaled-up unbound CLint=kV/N×scaling factor. V=incubation volume (0.25 mL); N=number of hepatocytes per well ([…]). Scaling factors for in vivo intrinsic clearance prediction are listed below: […]

Data set [4] concerns the target T2, MAGL (Homo sapiens, UniProt Q99685).
T2 construct: PC3 human cell membrane proteomes; endogenous in cells; host or cells: PC3 human cells (membrane proteome)
T2 sequence (Q99685 1-303): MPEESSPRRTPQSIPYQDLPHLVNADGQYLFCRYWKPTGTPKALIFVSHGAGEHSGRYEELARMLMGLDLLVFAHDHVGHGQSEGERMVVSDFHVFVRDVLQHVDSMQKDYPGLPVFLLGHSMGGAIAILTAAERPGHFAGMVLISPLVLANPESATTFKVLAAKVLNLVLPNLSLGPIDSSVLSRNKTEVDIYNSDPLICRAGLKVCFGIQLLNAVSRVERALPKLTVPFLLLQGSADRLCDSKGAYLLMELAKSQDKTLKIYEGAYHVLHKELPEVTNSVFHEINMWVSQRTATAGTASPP
Kind of data set: In vitro competitive activity-based protein profiling (PC3 human cell membrane proteomes). Type of data set: biochemical. The method, then:
PC3 human cell membrane proteomes (50 µL, 2.0 mg/mL total protein concentration) were preincubated with varying concentrations of inhibitors at 37° C. After 30 min, the ABPP probe JW912-Bodipy (1.0 µL, 50 µM in DMSO) was added and the mixture was incubated for 30 min at room temperature. Reactions were quenched with SDS loading buffer (15 μL-4×) and run on SDS-PAGE. Following gel imaging, serine hydrolase activity was determined by measuring fluorescent intensity of gel bands corresponding to MAGL using ImageJ 1.43u software. Intensities were converted to percent enzyme activity by normalizing to DMSO controls. IC50 values were determined by fitting percent enzyme activities to a non-linear regression, 4-parameter, sigmoidal dose response function in Prism GraphPad.

Setting [5] is: PBS pH 7.4, RT, read-out: pH 7.4 Solubility (kinetic).
Setting [6] is: PBS pH 2.0, RT, read-out: pH 2 Solubility (kinetic).

Molecules are shown by their SMILES. Like-named read-outs stand apart in the source and are kept apart here.

As for `CP(C)(=O)c1ccc(NC(=O)C2CC23CCN(C(=O)OC(C(F)(F)F)C(F)(F)F)CC3)cn1` (single isomer, unassigned) [Example 20, 1,1,1,3,3,3-hexafluoropropan-2-yl (R or S)-1-((6-(dimethylphosphoryl)pyridin-3-yl)carbamoyl)-6-azaspiro[2.5]octane-6-carboxylate], on MAGL [1], the inhibition at 5 mg/kg came to 0%. Besides, in data set [2] (setting [5]), the kinetic solubility at 2 h is 310 µM. Besides, the CLint scaled at 1 μM in data set [3] was found to be 0.85 mL/min/kg.
For the molecule `O=C(Nc1ccncc1)C1CC12CCN(C(=O)OC(C(F)(F)F)C(F)(F)F)CC2` (single isomer, unassigned) [Example 24, 1,1,1,3,3,3-hexafluoropropan-2-yl (R or S)-1-(pyridin-4-ylcarbamoyl)-6-azaspiro[2.5]octane-6-carboxylate], the inhibition at 5 mg/kg on MAGL [1] was determined as 90%. In data set [2] (setting [5]), the kinetic solubility at 2 h came out at 197 µM. In addition, the intrinsic metabolic clearance (CLint scaled) at 1 μM in data set [3] was determined as 11.9 mL/min/kg.
Take `O=C(Nc1cncc(F)c1)C1CC12CCN(C(=O)OC(C(F)(F)F)C(F)(F)F)CC2` (single isomer, unassigned) [Example 40, 1,1,1,3,3,3-hexafluoropropan-2-yl (R or S)-1-((5-fluoropyridin-3-yl)carbamoyl)-6-azaspiro[2.5]octane-6-carboxylate]: the “MAGL % inh. 1 µM (human PC3)” value at MAGL [4] amounted to 100%. For the same molecule, the inhibition at 5 mg/kg on MAGL [1] stood at 100%. Further, the results for the solubility (kinetic) at 2 h in data set [2] (setting [6]) and in data set [2] (setting [5]) were 163 µM and 100 µM, respectively. For the same molecule, in data set [3], the CLint scaled at 1 μM is 43.2 mL/min/kg.
As to `O=C(Nc1cncnc1)C1CC12CCN(C(=O)OC(C(F)(F)F)C(F)(F)F)CC2` (single isomer, unassigned) [Example 96, 1,1,1,3,3,3-hexafluoropropan-2-yl (R or S)-1-(pyrimidin-5-ylcarbamoyl)-6-azaspiro[2.5]octane-6-carboxylate], the inhibition at 5 mg/kg on MAGL [1] came to 100%. Further, the solubility (kinetic) at 2 h in data set [2] (setting [5]) amounted to 237 µM. Also, the CLint scaled at 1 μM in data set [3] was found to be 17.1 mL/min/kg.
As to `Cc1cnc(NC(=O)C2CC23CCN(C(=O)OC(C(F)(F)F)C(F)(F)F)CC3)cn1` (single isomer, unassigned) [Example 112, 1,1,1,3,3,3-hexafluoropropan-2-yl (R or S)-1-((5-methylpyrazin-2-yl)carbamoyl)-6-azaspiro[2.5]octane-6-carboxylate], the inhibition at 5 mg/kg on MAGL [1] worked out at 75%. In addition, the figures for the solubility (kinetic) at 2 h in data set [2] (setting [6]) and in data set [2] (setting [5]) were 185 µM and 109 µM, respectively. For the same molecule, the CLint scaled at 1 μM in data set [3] was determined as 9.59 mL/min/kg.
For the molecule `O=C(NCC1CCOCC1)[C@H]1CC12CCN(C(=O)OC(C(F)(F)F)C(F)(F)F)CC2` (single isomer, unassigned) [Example 117], the inhibition at 5 mg/kg at MAGL [1] is 100%. Besides, the solubility (kinetic) at 2 h in data set [2] (setting [5]) turned out to be 251 µM. Besides, the intrinsic metabolic clearance (CLint scaled) at 1 μM in data set [3] was found to be 20.6 mL/min/kg.
With `Cn1ccc(NC(=O)C2CC23CCN(C(=O)OC(C(F)(F)F)C(F)(F)F)CC3)n1` (single isomer, unassigned) [Example 127, 1,1,1,3,3,3-hexafluoropropan-2-yl (R or S)-1-((1-methyl-1H-pyrazol-3-yl)carbamoyl)-6-azaspiro[2.5]octane-6-carboxylate], the inhibition at 5 mg/kg at MAGL [1] stood at 75%. Moreover, the kinetic solubility at 2 h in data set [2] (setting [6]) is 275 µM; in data set [2] (setting [5]), 292 µM. The CLint scaled at 1 μM in data set [3] amounted to 9.51 mL/min/kg.
For `CC1(NC(=O)C2CC23CCN(C(=O)OC(C(F)(F)F)C(F)(F)F)CC3)CCOCC1` (single isomer, unassigned) [Example 132, 1,1,1,3,3,3-hexafluoropropan-2-yl (R or S)-1-((4-methyltetrahydro-2H-pyran-4-yl)carbamoyl)-6-azaspiro[2.5]octane-6-carboxylate], the inhibition at 5 mg/kg at MAGL [1] worked out at 100%. Moreover, the CLint scaled at 1 μM in data set [3] stood at 44.2 mL/min/kg.
With `Cn1nccc1NC(=O)C1CC12CCN(C(=O)OC(C(F)(F)F)C(F)(F)F)CC2` (single isomer, unassigned) [Example 135, 1,1,1,3,3,3-hexafluoropropan-2-yl (R or S)-1-((1-methyl-1H-pyrazol-5-yl)carbamoyl)-6-azaspiro[2.5]octane-6-carboxylate], the inhibition at 5 mg/kg at MAGL [1] was 100%. In addition, the CLint scaled at 1 μM in data set [3] is 16.8 mL/min/kg.
The like results for `O=C(Nc1nccs1)C1CC12CCN(C(=O)OC(C(F)(F)F)C(F)(F)F)CC2` (single isomer, unassigned) [Example 138, 1,1,1,3,3,3-hexafluoropropan-2-yl (R or S)-1-(thiazol-2-ylcarbamoyl)-6-azaspiro[2.5]octane-6-carboxylate] were, in that order, 75% and 40.5 mL/min/kg.

Usually solubility (kinetic) stands for solubility judged after dilution from a stock solution rather than from solid. One may read the CLint scaled as a measure of how fast metabolising enzymes remove a compound, apart from limits set by blood flow.
